Series [1] is described as follows: Calculation of pFe3+ by HySS software from pKa and logβ values. Type of series: physicochemical. On the procedure:
The values of pFe^3+ were calculated by HySS software according to the results of pKa1, pKa2, logβ1, logβ2, and logβ3 determined by the above methods. The basic parameters were set as follows: FeOH = –2.563, Fe(OH)2 = –6.205, Fe(OH)3 = –15.1, Fe2(OH)2 = –2.843, Fe3(OH)4 = –6.059, Fe(OH)4 = –21.883[23].

The target in a further series is T1, Human MAO-B (Homo sapiens, UniProt P27338).
T1 construct: purchased Sigma-Aldrich
T1 sequence (P27338 1-520): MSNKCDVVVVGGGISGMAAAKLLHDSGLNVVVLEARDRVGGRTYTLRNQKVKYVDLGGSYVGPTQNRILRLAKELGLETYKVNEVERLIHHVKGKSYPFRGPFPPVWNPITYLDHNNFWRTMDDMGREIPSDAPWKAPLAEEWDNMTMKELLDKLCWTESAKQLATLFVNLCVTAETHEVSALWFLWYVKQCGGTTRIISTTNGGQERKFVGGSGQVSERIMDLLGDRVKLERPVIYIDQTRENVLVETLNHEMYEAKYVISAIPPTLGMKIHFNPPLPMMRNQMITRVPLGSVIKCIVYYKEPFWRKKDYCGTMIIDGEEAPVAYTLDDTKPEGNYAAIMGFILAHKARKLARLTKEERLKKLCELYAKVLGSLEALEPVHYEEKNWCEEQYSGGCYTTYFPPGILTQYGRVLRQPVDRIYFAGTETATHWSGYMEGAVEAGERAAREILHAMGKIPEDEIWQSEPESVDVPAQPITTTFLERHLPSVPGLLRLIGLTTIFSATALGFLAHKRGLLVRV
Description: Determination of human MAO-B inhibitory activity (Monoamine Oxidase Assay Kit, fluorescence). Type of series: biochemical.

A short description of series [2]: pKa determination by automatic spectrophotometric titration. Conditions: 0.1 M KCl solution, Figure 2; 0.1 M KCl at 25 °C; read-out: pKa1 (Figure 2, printed as pH at curve crossing). Type of series: physicochemical.
The nature of series [3]: Determination of iron(III) affinity (Logβ1, Logβ2, Logβ3) by spectrophotometric titration. The conditions noted are these: DMSO:KCl (0.1 M) = 2:3 (V/V), 25 °C; for Logβ1: compound:iron 1.1:1; for Logβ2 / Logβ3: compound:iron 5:1. Type of series: physicochemical. On the procedure:
(§1) The automatic titration system used in the test consisted of an automatic titrator, a luminescence 759 s UV-Vis spectrophotometer, and a pH Meter (Mettler Toledo InLab Expert PRO/Mettler Toledo InLab Science). All instruments are controlled by a computer program.
(§2) The testing solution (2:3 DMSO/KCl (0.1 M), V/V) was maintained at 25 °C using a TP-3A temperature controller. The cuvette is mounted on a spectrophotometer. The E0 and s of the pH Meter were calibrated by three standard solutions (pH = 6.86, 9.18, 4.00). KCl solution (0.1 M) was used to maintain the ionic strength. For the Fe(III) affinity evaluation, the ratio of compounds to iron ion was kept at 1.1:1 (n/n) when Logβ1 was measured; the ratio of compounds to iron ion was kept at 5:1 (n/n) when Logβ2 and Logβ3 were tested.
A 45 ml KCl (0.1 M) solution was added to the cuvette (50 mm) and the pH value was acidified to 2.1. Then 30 μM DMSO solution of the testing compound and 60 μL acidic solution of FeCl3 (15 mM) were added separately, and the mixture was vigorously stirred. After the absorbance value is stabilised, a certain amount of HCl solution (4 M) was added by the automatic buret to reduce the pH of the solution by 0.1. After the system was equilibrated, the spectral scan was performed once after 20 min. This protocol was repeated until the specified endpoint of the pH value was reached. All data was recorded with the internal Visual Basic program, HypSpec2014 program was utilised for the data analysis.
Similarly, 45 ml KCl (0.1 M) solution was added to the cuvette (50 mm) and the pH value was acidified to 2.1. Then 30 μM DMSO solution of the testing compound and 60 μL acidic solution of FeCl3 (15 mM) were added separately, and the mixture was vigorously stirred. After the absorbance value is stabilised, a certain amount of KOH solution (0.1 M) was added by the automatic buret to increase the pH of the solution by 0.1. After the system was equilibrated, the spectral scan was performed once after 5 min. This protocol was repeated until the specified endpoint of the pH value was reached. All data were recorded with the internal Visual Basic program, HypSpec2014 program was utilised for the data analysis[5]^,[21]^,[22].

A short description of series [4]: pKa determination by automatic spectrophotometric titration. Type of series: physicochemical. The conditions noted are these: DMSO:KCl (0.1 M) = 2:3 (V/V), 25 °C; for pKa: DMSO/0.1 M KCl 2:3 (V/V) solution. As to the method:
as §1, §2
The titration was performed in a 50 mm path length cuvette. 45 ml KCl (0.1 M) solution, 40 μL of saturated EDTA solution were added to the cuvette. The pH value of the solution was acidified to 2.0 with hydrochloric acid (1.5 M). Then 20 μL of test compound DMSO solution (30 μM/L) was added and stirred vigorously. By adding KOH solution (0.1 M) from the automatic buret, the pH value of the solution was increased by 0.1. […] Adding KOH solution (0.1 M) and repeated the automatic process until the specified endpoint of pH value was reached. All data were recorded internally by the Visual Basic program, and the test results are analysed by the HypSpec2014 program.

Details of series [5]: method as in ref 17 = [17]; 17 Li Z-S , Qiao R-P , Yang Z-J , et al. One-step synthesis of novel tricyclic isomeric azidonucleosides . Tetrahedron Asymmetry 2006; 17 : 1056 – 61 . The conditions noted are these: cited from earlier work.
On the set-up of series [6]: method as in ref 17 = [17]; 17 Li Z-S , Qiao R-P , Yang Z-J , et al. One-step synthesis of novel tricyclic isomeric azidonucleosides . Tetrahedron Asymmetry 2006; 17 : 1056 – 61 . The conditions noted are these: cited from earlier work. This is another data set of the same source.
On the set-up of series [7]: method as in ref 17 = [17]; 17 Li Z-S , Qiao R-P , Yang Z-J , et al.  . Tetrahedron Asymmetry 2006; 17 : 1056 – 61 . Conditions: cited from earlier work.
A short description of series [8]: Determination of iron(III) affinity (Logβ1, Logβ2, Logβ3) by spectrophotometric titration. In kind it is physicochemical. Conditions: measured in 0.1 M KCl solution.
[9] abbreviates: DMSO:KCl (0.1 M) = 2:3 (V/V), calculated by HySS from pKa1, pKa2, logβ1-3.

Like-named read-outs stand apart in the source and are kept apart here. Marks after values point to notes of the source that are not given here.

Description for Human MAO-B: Human MAO-B (5 mg/mL) was purchased from Sigma-Aldrich and was pre-aliquoted and stored at -70 °C. 200 μL enzymatic reactions were diluted in 2 ml microcentrifuge tubes by potassium phosphate buffer (Assay Buffer, pH 7.4) which have been provided by Sigma-Aldrich Monoamine Oxidase Assay Kit. The final volumes of the reactions were 100 μL and contained 45 μL MAO-B (0.0075 mg/mL), included 5 μL different concentrations of the testing inhibitors (10 μM, 1 μM), and 50 μL Master Reaction, p-Tyramine, HRP Enzyme and Dye Reagent. Stock solutions of the compounds were prepared in DMSO.

Consider `CCc1c(O)c(=O)ccn1CCCn1cc(COc2cc3ccccc3oc2=O)nn1` [Compound 27j, 2-ethyl-3-hydroxy-1–(3-(4-(((2-oxo-2H-chromen-3-yl)oxy)methyl)-1H-1,2,3-triazol-1-yl)propyl)pyridin-4(1H)-one], for which the melting point lay in the range of 192 to 195 °C. Besides, the “pFe3+” value in series [1] (setting [9]) is 17.1. This molecule also registered a half-inhibitory concentration (IC50) at Human MAO-B of 860 nM. In addition, on Human MAO-B (compound at 1 μM, 1 µM), the “Inhibitory rate (%) 1 μM” value is given as 62.43%. For the same molecule, on Human MAO-B (compound at 1 μM, read-out: Inhibitory rate (%) 1 μM), the inhibition at 1 µM came out at 62%. For the same molecule, on Human MAO-B (compound at 10 μM, read-out: Inhibitory rate (%) 10 μM), the inhibition at 10 µM amounted to 88.8%. In addition, the pKa in series [2] is 3.4. In series [3], the Logβ1 is reported as 14.6, the Logβ2 is given as 25.7 and the Logβ3 was determined as 33.5. In addition, the pKa in series [4] (read-out: pKa1) was found to be 3.3. In [4] (read-out: pKa2), the pKa is 9.8.
With `Cc1c(O)c(=O)ccn1C` [Deferiprone], the “pFe3+” value is listed as 17.4 in series [1] (setting [9]), 20.1^b in series [1] (data measured in 0.1 M KCl solution) and 20.7^c in series [6]. Also, the Logβ1 in series [5] is 15.03^c; in [3], 14.83. Moreover, the Logβ2 is 27.42^c in [5], 25.7 in series [3] and 27.0^b in [8]. For the same molecule, the Logβ3 in [5] is on record as 37.35^c; in series [3], 33.6; in [8] it was 36.4^b. For the same molecule, in series [7], the pKa2 is on record as 9.78^c. Further, the pKa1 in series [4] is 3.68.

One may read the IC50 as the point on the concentration scale where inhibition reaches its midpoint. High values mean weaker potency, low ones greater potency. The melting point is the temperature, or range, at which the solid turns liquid.

The values above are taken from paper PMC6713216, “Dual-target anti-Alzheimer’s disease agents with both iron ion chelating and monoamine oxidase-B inhibitory activity” (Journal of Enzyme Inhibition and Medicinal Chemistry, 2019).
